From patent US11209582B2, “Composition, curable composition, cured film, near infrared cut filter, infrared transmitting filter, solid image pickup element, infrared sensor, and camera module” (FUJIFILM Corporation, priority 2016, dated 2021)

Legend:
[1] = Absorption spectrum in solution (absorption maximum λmax, absorption coefficient); assay type: physicochemical
Description: It is preferable that the compound represented by Formula (1) is a compound having an absorption maximum in a wavelength range of 700 to 1200 nm. In addition, a ratio A1/A2 of an absorbance A1 at a wavelength of 500 nm to an absorbance A2 at the absorption maximum is preferably 0.1 or lower and more preferably 0.05 or lower. The absorbance of the compound is a value obtained from the absorption spectrum of the compound in the solution. Examples of a measurement solvent used for the measurement of the absorption spectrum of the compound represented by Formula (1) in the solution include chloroform, dimethyl sulfoxide, and tetrahydrofuran. In a case where the compound represented by Formula (1) is soluble in chloroform, chloroform is used as the measurement solvent. In addition, in a case where the compound represented by Formula (1) is not soluble in chloroform and is soluble in dimethyl sulfoxide or tetrahydrofuran, dimethyl sulfoxide or tetrahydrofuran is used as the measurement solvent.

[2] = Measurement of solubility in solvent at 25° C.; assay type: physicochemical; conditions: organic solvent or mixture, thermodynamic from solid; in propylene glycol monomethyl ether acetate and 2-butanol at 25° C.
Experimental: <Measurement of Solubility>
A measurement sample was added to a solvent at 25° C. under the atmospheric pressure, the solution was stirred for 1 hour, and the solubility of the measurement sample in the solvent was obtained.

Row | Compound | λmax (absorption maximum) ([1]; in chloroform) | also measured
1 | CCC(C)COc1ccc(-c2c3c(=C(C#N)c4nc5ccccc5s4)n(B(c4ccccc4)c4ccccc4)c(-c4ccc(OCC(C)CC)cc4)c3c(=C(C#N)c3nc4ccccc4s3)n2B(c2ccccc2)c2ccccc2)cc1 (centres unmarked) [A-1] | 780 nm | –
2 | CCC(C)COc1ccc(-c2c3c(=C(C#N)c4nc5cc(Cl)ccc5s4)n(B(c4ccccc4)c4ccccc4)c(-c4ccc(OCC(C)CC)cc4)c3c(=C(C#N)c3nc4cc(Cl)ccc4s3)n2B(c2ccccc2)c2ccccc2)cc1 (centres unmarked) [A-2] | 782 nm | –
3 | CCC(C)COc1ccc(-c2c3c(=C(C#N)c4nc5ccc(Cl)cc5s4)n(B(c4ccccc4)c4ccccc4)c(-c4ccc(OCC(C)CC)cc4)c3c(=C(C#N)c3nc4ccc(Cl)cc4s3)n2B(c2ccccc2)c2ccccc2)cc1 (centres unmarked) [A-3] | 786 nm | –
4 | CCC(C)COc1ccc(-c2c3c(=C(C#N)c4nc5cc(C)ccc5s4)n(B(c4ccccc4)c4ccccc4)c(-c4ccc(OCC(C)CC)cc4)c3c(=C(C#N)c3nc4cc(C)ccc4s3)n2B(c2ccccc2)c2ccccc2)cc1 (centres unmarked) [A-4] | 785 nm | –
5 | CCC(C)COc1ccc(-c2c3c(=C(C#N)c4nc5ccc(C)cc5s4)n(B(c4ccccc4)c4ccccc4)c(-c4ccc(OCC(C)CC)cc4)c3c(=C(C#N)c3nc4ccc(C)cc4s3)n2B(c2ccccc2)c2ccccc2)cc1 (centres unmarked) [A-5] | 788 nm | –
6 | CCC(C)COc1ccc(-c2c3c(=C(C#N)c4nc5cc(C)c(C)cc5s4)n(B(c4ccccc4)c4ccccc4)c(-c4ccc(OCC(C)CC)cc4)c3c(=C(C#N)c3nc4cc(C)c(C)cc4s3)n2B(c2ccccc2)c2ccccc2)cc1 (centres unmarked) [A-6] | 794 nm | –
7 | CCC(C)COc1ccc(-c2c3c(=C(C#N)c4nc5cc(OC)ccc5s4)n(B(c4ccccc4)c4ccccc4)c(-c4ccc(OCC(C)CC)cc4)c3c(=C(C#N)c3nc4cc(OC)ccc4s3)n2B(c2ccccc2)c2ccccc2)cc1 (centres unmarked) [A-7] | 794 nm | –
8 | CCC(C)COc1ccc(-c2c3c(=C(C#N)c4nc5ccc(OC)cc5s4)n(B(c4ccccc4)c4ccccc4)c(-c4ccc(OCC(C)CC)cc4)c3c(=C(C#N)c3nc4ccc(OC)cc4s3)n2B(c2ccccc2)c2ccccc2)cc1 (centres unmarked) [A-8] | 802 nm | –
9 | N#CC(c1nc2ccccc2s1)=c1c2c(-c3ccc(O)cc3)n(B(c3ccccc3)c3ccccc3)c(=C(C#N)c3nc4ccccc4s3)c2c(-c2ccc(O)cc2)n1B(c1ccccc1)c1ccccc1 [A-9] | – | λmax (absorption maximum) ([1]; in dimethyl sulfoxide (DMSO)): 782 nm
10 | N#CC(c1nc2cc(Cl)ccc2s1)=c1c2c(-c3ccc(O)cc3)n(B(c3ccccc3)c3ccccc3)c(=C(C#N)c3nc4cc(Cl)ccc4s3)c2c(-c2ccc(O)cc2)n1B(c1ccccc1)c1ccccc1 [A-10] | – | λmax (absorption maximum) ([1]; in dimethyl sulfoxide (DMSO)): 782 nm
11 | Cc1cc2nc(C(C#N)=c3c4c(-c5ccc(O)cc5)n(B(c5ccccc5)c5ccccc5)c(=C(C#N)c5nc6cc(C)c(C)cc6s5)c4c(-c4ccc(O)cc4)n3B(c3ccccc3)c3ccccc3)sc2cc1C [A-14] | – | λmax (absorption maximum) ([1]; in dimethyl sulfoxide (DMSO)): 795 nm
12 | COc1ccc2sc(C(C#N)=c3c4c(-c5ccc(O)cc5)n(B(c5ccccc5)c5ccccc5)c(=C(C#N)c5nc6cc(OC)ccc6s5)c4c(-c4ccc(O)cc4)n3B(c3ccccc3)c3ccccc3)nc2c1 [A-15] | – | gram absorption coefficient [1]: 200 L/g/cm; molar absorption coefficient [1]: 185000 L/mol/cm; λmax (absorption maximum) ([1]; in dimethyl sulfoxide (DMSO)): 795 nm
13 | CCC(C)COc1cccc(-c2c3c(=C(C#N)c4nc5ccccc5s4)n(B(c4ccccc4)c4ccccc4)c(-c4cccc(OCC(C)CC)c4)c3c(=C(C#N)c3nc4ccccc4s3)n2B(c2ccccc2)c2ccccc2)c1 (centres unmarked) [A-25] | 782 nm | –
14 | CCC(C)COc1cccc(-c2c3c(=C(C#N)c4nc5cc(C)c(C)cc5s4)n(B(c4ccccc4)c4ccccc4)c(-c4cccc(OCC(C)CC)c4)c3c(=C(C#N)c3nc4cc(C)c(C)cc4s3)n2B(c2ccccc2)c2ccccc2)c1 (centres unmarked) [A-30] | 795 nm | –
15 | CCC(C)COc1ccc(-c2c3c(=C(C#N)c4nc5ccccc5s4)n(B4Oc5ccccc5O4)c(-c4ccc(OCC(C)CC)cc4)c3c(=C(C#N)c3nc4ccccc4s3)n2B2Oc3ccccc3O2)cc1 (centres unmarked) [A-60] | 717 nm | –
16 | COc1ccc2sc(C(C#N)=c3c4c(-c5ccc(OC(=O)c6ccccc6)cc5)n(B(c5ccccc5)c5ccccc5)c(=C(C#N)c5nc6cc(OC)ccc6s5)c4c(-c4ccc(OC(=O)c5ccccc5)cc4)n3B(c3ccccc3)c3ccccc3)nc2c1 [A-81] | 800 nm | –
17 | CCC(C)COc1ccc(-c2c3/c(=C(\C#N)c4cnc5ccccc5n4)n(B(c4ccccc4)c4ccccc4)c(-c4ccc(OCC(C)CC)cc4)c3/c(=C(\C#N)c3cnc4ccccc4n3)n2B(c2ccccc2)c2ccccc2)cc1 (centres unmarked) [A-201] | 862 nm | –
18 | CN1C(=O)c2ccc(C(=O)Oc3ccc(-c4c5c(=C(C#N)c6cnc7cc(Cl)c(Cl)cc7n6)n(B(c6ccccc6)c6ccccc6)c(-c6ccc(OC(=O)c7ccc8c(c7)C(=O)N(C)C8=O)cc6)c5c(=C(C#N)c5cnc6cc(Cl)c(Cl)cc6n5)n4B(c4ccccc4)c4ccccc4)cc3)cc2C1=O [A-514] | 883 nm | –
19 | N#C/C(c1cnc2cc(Cl)c(Cl)cc2n1)=c1\c2c(-c3ccc(OC(=O)c4ccc5c(c4)C(=O)N(CCCS(=O)(=O)O)C5=O)cc3)n(B(c3ccccc3)c3ccccc3)/c(=C(/C#N)c3cnc4cc(Cl)c(Cl)cc4n3)c2c(-c2ccc(OC(=O)c3ccc4c(c3)C(=O)N(CCCS(=O)(=O)O)C4=O)cc2)n1B(c1ccccc1)c1ccccc1 [B-634] | – | solubility at 1 h [2]: < 0.1 mg/mL
20 | CCN(CC)CCCN1C(=O)c2ccc(C(=O)Oc3ccc(-c4c5/c(=C(\C#N)c6cnc7cc(Cl)c(Cl)cc7n6)n(B(c6ccccc6)c6ccccc6)c(-c6ccc(OC(=O)c7ccc8c(c7)C(=O)N(CCCN(CC)CC)C8=O)cc6)c5/c(=C(\C#N)c5cnc6cc(Cl)c(Cl)cc6n5)n4B(c4ccccc4)c4ccccc4)cc3)cc2C1=O [B-644] | 883 nm | solubility at 1 h [2]: < 0.1 mg/mL
